From PubChem BioAssay (NCI)
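Method: 48-hour compound exposure of cells in 96-well plates, five concentrations, linear interpolation of endpoints. Abbreviation: GI50, concentration required for 50% inhibition of growth. TGI marks complete inhibition of growth.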

Key:
Assay in all cases: inhibition of tumour cell growth, NCI panel, 48 h
[1] = tested on: A549 NSCLC
[2] = tested on: ACHN renal
[3] = tested on: HL-60(TB) leukemia
[4] = tested on: IGROV1 ovarian
[5] = tested on: NCI-H460 lung
[6] = tested on: OVCAR-4 ovarian
[7] = tested on: RPMI-8226 leukemia
[8] = tested on: SF-295 CNS
[9] = tested on: TK-10 renal
[10] = tested on: UACC-257 melanoma

O=C(N/N=C/c1ccccc1Cl)c1ccccc1Nc1ccnc(C(F)(F)F)c1
GI50 [1]: 3.01 µM
TGI [1]: 8.91 µM
GI50 [2]: 1.16 µM
TGI [2]: 4.72 µM
GI50 [3]: 1710 nM
GI50 [4]: 1.87 µM
TGI [4]: 10.3 µM
GI50 [5]: 0.768 µM
TGI [5]: 2.38 µM
GI50 [6]: 1.32 µM
TGI [6]: > 100 µM
GI50 [7]: 0.47 µM
TGI [7]: 2.74 µM
GI50 [8]: 0.354 µM
TGI [8]: 1.33 µM
GI50 [9]: 0.673 µM
TGI [9]: 3.87 µM
GI50 [10]: 2.61 µM
TGI [10]: 5.58 µM

CC(=O)/C(=C\C1=CCCO1)C(=O)Nc1ccccc1C
TGI [1]: > 100 µM
TGI [2]: > 100 µM
TGI [3]: > 100 µM
TGI [4]: > 100 µM
TGI [5]: > 100 µM
TGI [6]: > 100 µM
TGI [7]: > 100 µM
TGI [8]: > 100 µM
TGI [9]: > 100 µM
TGI [10]: > 100 µM

COc1c(Cl)c2c(c(OC)c1OC)-c1ccc(SC)c(=O)cc1[C@@H](NC(=O)OCC(F)(F)F)CC2
GI50 [1]: < 0.01 µM
TGI [1]: > 100 µM
GI50 [2]: < 0.01 µM
TGI [2]: > 100 µM
GI50 [3]: < 10 nM
TGI [3]: < 0.01 µM
GI50 [4]: < 0.01 µM
TGI [4]: > 100 µM
GI50 [5]: < 0.01 µM
TGI [5]: 10.2 µM
GI50 [6]: 0.0889 µM
TGI [6]: > 100 µM
GI50 [7]: < 0.01 µM
TGI [7]: 8.21 µM
GI50 [8]: < 0.01 µM
TGI [8]: 2.98 µM
GI50 [9]: 6.11 µM
TGI [9]: > 100 µM
GI50 [10]: 9.61 µM
TGI [10]: > 100 µM

NC(=S)N/N=C(\C(=O)Nc1cccc([N+](=O)[O-])c1)c1nc2ccc([N+](=O)[O-])cc2[nH]c1=O
TGI [1]: > 100 µM
TGI [2]: > 100 µM
TGI [3]: > 100 µM
TGI [4]: > 100 µM
TGI [5]: > 100 µM
TGI [6]: > 100 µM
TGI [7]: > 100 µM
TGI [8]: > 100 µM
TGI [9]: > 100 µM
TGI [10]: > 100 µM

NC(=O)c1ccc2c(-c3ccnc(NCCCO)n3)c(-c3ccc(F)cc3)nn2c1
GI50 [1]: > 23 µM
TGI [1]: > 25 µM
GI50 [2]: > 17.1 µM
TGI [2]: > 25 µM
GI50 [3]: > 21900 nM
TGI [3]: > 25 µM
GI50 [4]: 12.9 µM
TGI [4]: > 25 µM
GI50 [5]: > 25 µM
TGI [5]: > 25 µM
GI50 [6]: > 25 µM
TGI [6]: > 25 µM
GI50 [7]: > 25 µM
TGI [7]: > 25 µM
GI50 [8]: > 25 µM
TGI [8]: > 25 µM
GI50 [9]: > 18.6 µM
TGI [9]: > 25 µM
GI50 [10]: > 25 µM
TGI [10]: > 25 µM

CCOc1ccc(Nc2nc(-c3ccc4c(c3)NC(=O)CO4)cs2)cc1
GI50 [1]: 5.14 µM
TGI [1]: > 100 µM
GI50 [2]: 6.96 µM
TGI [2]: > 100 µM
GI50 [3]: 2140 nM
TGI [3]: 8.17 µM
GI50 [4]: 15.5 µM
TGI [4]: > 100 µM
GI50 [5]: 4.37 µM
TGI [5]: > 100 µM
GI50 [6]: 3.51 µM
TGI [6]: > 100 µM
GI50 [7]: 14.9 µM
TGI [7]: > 100 µM
GI50 [8]: 4.92 µM
TGI [8]: > 100 µM
GI50 [9]: 9.98 µM
TGI [9]: > 100 µM
GI50 [10]: 3.37 µM
TGI [10]: 11 µM

CCCCCCCCCCC(O)C1CCC(C(O)CCC(O)C2CCC(CCCCCCC[C@H](O)CC3=C[C@@H](C)OC3=O)O2)O1 (stereo partly drawn)
GI50 [1]: 8.66 µM
TGI [1]: > 100 µM
GI50 [2]: > 100 µM
TGI [2]: > 100 µM
TGI [3]: 13.4 µM
TGI [4]: > 100 µM
TGI [5]: > 100 µM
TGI [6]: > 100 µM
GI50 [7]: 6.36 µM
TGI [7]: > 100 µM
TGI [8]: > 100 µM
TGI [9]: > 100 µM
GI50 [10]: 0.461 µM
TGI [10]: > 100 µM

COc1cc(C=Nc2ccc(C(C)C)cc2)cc(OC)c1OC
TGI [1]: > 100 µM
TGI [2]: > 100 µM
TGI [3]: > 82.3 µM
TGI [4]: > 100 µM
TGI [5]: > 100 µM
TGI [6]: > 100 µM
TGI [7]: > 68.4 µM
TGI [8]: > 100 µM
TGI [9]: > 100 µM
TGI [10]: > 100 µM

Cc1cc(I)cc(CN(C)CCN2CCCC2)c1O
GI50 [1]: 37.9 µM
TGI [1]: > 100 µM
GI50 [2]: 25.7 µM
TGI [2]: > 84.4 µM
GI50 [3]: 10900 nM
TGI [3]: 34.2 µM
GI50 [4]: 20.9 µM
TGI [4]: 53.8 µM
GI50 [5]: 28.3 µM
TGI [5]: 85.4 µM
GI50 [6]: 38.7 µM
TGI [6]: > 100 µM
GI50 [7]: 19.2 µM
TGI [7]: 46.2 µM
GI50 [8]: 13.1 µM
TGI [8]: 36.6 µM
GI50 [9]: 18.6 µM
TGI [9]: 39.3 µM
GI50 [10]: 32.2 µM
TGI [10]: 51.4 µM

COc1ccc(C(=O)OC2C=COC(C)C2OC(=O)c2ccc(OC)cc2)cc1 (stereo not drawn)
TGI [1]: > 100 µM
TGI [2]: > 100 µM
TGI [3]: 38 µM
TGI [4]: > 83.6 µM
TGI [5]: > 100 µM
TGI [6]: > 63.2 µM
TGI [7]: 47.2 µM
TGI [8]: > 100 µM
TGI [9]: > 100 µM
TGI [10]: > 72.4 µM

COc1ccc(-c2ccc(/C=N/n3c(COc4ccc(Cl)cc4Cl)nn(CN4CCN(C)CC4)c3=S)o2)c([N+](=O)[O-])c1
GI50 [1]: 20.8 µM
TGI [1]: > 100 µM
GI50 [2]: 21.9 µM
TGI [2]: 55.7 µM
GI50 [3]: 16300 nM
TGI [3]: 43.9 µM
GI50 [4]: 45 µM
TGI [4]: > 100 µM
GI50 [5]: 15 µM
TGI [5]: 45.1 µM
GI50 [6]: 59.7 µM
TGI [6]: > 100 µM
GI50 [7]: 9.37 µM
TGI [7]: 50 µM
GI50 [8]: 16.8 µM
TGI [8]: 37.5 µM
GI50 [9]: 2.43 µM
TGI [9]: 9.67 µM
GI50 [10]: 23.5 µM
TGI [10]: 59.6 µM

COc1ccc(-c2nc3ncccn3c2/C=C/C(=O)c2cc(OC)c(OC)c(OC)c2)cc1
GI50 [1]: 2.71 µM
TGI [1]: > 100 µM
GI50 [2]: 1.57 µM
TGI [2]: 3.17 µM
GI50 [3]: 2520 nM
TGI [3]: > 100 µM
GI50 [4]: 2.2 µM
TGI [4]: 6.29 µM
GI50 [5]: 1.43 µM
TGI [5]: 2.74 µM
GI50 [6]: 2.91 µM
TGI [6]: 14.3 µM
GI50 [7]: 2.21 µM
TGI [7]: > 100 µM
GI50 [8]: 2.39 µM
TGI [8]: 4.83 µM
GI50 [9]: 2.88 µM
TGI [9]: 10.4 µM
GI50 [10]: 1.88 µM
TGI [10]: 4.81 µM

COc1cc(C(=O)C/C(CCC(=O)Nc2ccc(Cl)cc2C)=N/NC(=O)C(N)=O)ccc1O
TGI [1]: > 100 µM
TGI [2]: > 100 µM
TGI [3]: > 100 µM
TGI [4]: > 100 µM
TGI [5]: > 100 µM
TGI [6]: > 100 µM
TGI [7]: > 100 µM
TGI [8]: > 100 µM
TGI [9]: > 100 µM
TGI [10]: > 100 µM
